Reference: publication PMC13198257, “An aerosolized dual-action autotaxin inhibitor-PPARγ agonist for the treatment of pulmonary fibrosis” (Cell Reports Medicine, 2026)

System: lung gene expression
Test: RNA sequencing of lung tissue (BLM/EL244 vs BLM)
Type: in vivo, mouse
Procedure: RNA quality was assessed using an Agilent TapeStation 4150 with the High Sensitivity […] ScreenTape (Agilent), according to the manufacturer’s protocols. For library preparation, the QuantSeq 3’mRNA-Seq Library Prep Kit (Lexogen) was used according to manufacturer’s instructions. Briefly, 500 ng of RNA from each sample was used for first-strand synthesis, followed by RNA template removal, and second-strand synthesis initiated by random primers. In-line barcodes were introduced at this step, and this was followed by magnetic bead-based purification. The resulting libraries were amplified for 15 cycles and re-purified, with quantity and quality assessed on a Qubit 4 Fluorometer with the Invitrogen Qubit dsDNA HS Assay and an Agilent Tapestation 4150 with the High Sensitivity D1000 assay kit, respectively. The quantified libraries were pooled equimolarly; 50ng of total library mix was used for Adapter Conversion PCR Amplification using the Universal Library Conversion Kit (App-A), Version: V1.0 (MGI Tech Co., Ltd.), according to the manufacturer’s instructions.
The quantity and quality of the purified adapter conversion PCR (AC-PCR) product were evaluated on a Qubit 4 Fluorometer with the Invitrogen Qubit dsDNA HS Assay and on an Agilent Tapestation 4150 with the High Sensitivity D1000 assay kit, respectively. This was followed by DNA denaturation, Single-Strand Circularisation, Enzymatic Digestion, Enzymatic Digestion Product Cleanup and Quality Control steps on 1 pmol of AC-PCR product, according to the Universal Library Conversion Kit (App-A) User Manual (Version: A3).
Finally, 60 fmol of ssCirDNA were used for DNB preparation and sequencing on a DNBSEQ-G400 platform at the BSRC Alexander Fleming Genomics Facility, using a G400 App-A FCS SE100 High-throughput Sequencing Set (MGI Tech Co., Ltd.), according to the manufacturer’s instructions.
Alignment of the FASTQ files was performed against the mouse genome build mm10 using a custom Bash script.[143] Read counting on the 3′ UTRs and differential expression analysis were conducted using the metaseqR2 bioconductor package.[144] Genes corresponding to the following biotypes were excluded: polymorphic_pseudogene, processed_transcript, pseudogene, IG_V_pseudogene, misc_RNA, IG_C_gene, IG_J_gene, IG_D_gene, IG_LV_gene, TR_V_gene, TR_V_pseudogene, TEC, and processed_pseudogene. Gene counts were normalized with DESEQ[145] through metaseqR2. Genes with more than 10 counts in at least 50% of the samples were kept for further processing. For differential expression analysis, the PANDORA algorithm[146] was used to estimate a meta p-value integrating the results from the DESEQ, DESEQ2,[147] edgeR,[148] limma,[149] NBPSeq,[150] and NOISeq[151] algorithms. All additional parameters were set to default values.
Pathway enrichment analysis was performed for the Gene Ontology Biological process (BP) and Molecular Function (MF) terms through GeneCodis 4.[152] The volcano plots, scatterplots, Venn diagrams, and dot plots were generated using the ggplot2 Bioconductor package.

O=C1NC(=O)C(Cc2ccc(OCCC3CCN(C(=O)OCc4cc(Cl)cc(Cl)c4)CC3)cc2)S1 (stereo not shown) [EL244, 3,5-dichlorobenzyl 4-(2-(4-((2,4-dioxothiazolidin-5-yl)methyl)phenoxy)ethyl)piperidine-1-carboxylate]
Ear1 log2 nFC BLM/EL244 vs BLM (DEG Ear1, nFC: normalised fold change): 1.11
Ednrb log2 nFC BLM/EL244 vs BLM (DEG Ednrb, nFC: normalised fold change): 0.97
Elmod1 log2 nFC BLM/EL244 vs BLM (DEG Elmod1, nFC: normalised fold change): 0.89
Eml5 log2 nFC BLM/EL244 vs BLM (DEG Eml5, nFC: normalised fold change): 1.41
Eng log2 nFC BLM/EL244 vs BLM (DEG Eng, nFC: normalised fold change): 0.81
Errfi1 log2 nFC BLM/EL244 vs BLM (DEG Errfi1, nFC: normalised fold change): 0.95
Esm1 log2 nFC BLM/EL244 vs BLM (DEG Esm1, nFC: normalised fold change): 1.28
Fabp3 log2 nFC BLM/EL244 vs BLM (DEG Fabp3, nFC: normalised fold change): 0.98
Fabp12 log2 nFC BLM/EL244 vs BLM (DEG Fabp12, nFC: normalised fold change): 1.43
Faim2 log2 nFC BLM/EL244 vs BLM (DEG Faim2, nFC: normalised fold change): 2.03
Fam71f2 log2 nFC BLM/EL244 vs BLM (DEG Fam71f2, nFC: normalised fold change): 1.96
log2 nFC BLM/EL244 vs BLM (DEG Fcgr1): -1.30
log2 nFC BLM/EL244 vs BLM (DEG Fcrls): -1.35
log2 nFC BLM/EL244 vs BLM (DEG Fgf13): -1.40
log2 nFC BLM/EL244 vs BLM (DEG Fkbp10): -1.25
Fmo1 log2 nFC BLM/EL244 vs BLM (DEG Fmo1, nFC: normalised fold change): 0.86
Fmo2 log2 nFC BLM/EL244 vs BLM (DEG Fmo2, nFC: normalised fold change): 1.00
Fosb log2 nFC BLM/EL244 vs BLM (DEG Fosb, nFC: normalised fold change): 2.38
log2 nFC BLM/EL244 vs BLM (DEG Foxm1): -1.56
Fxyd1 log2 nFC BLM/EL244 vs BLM (DEG Fxyd1, nFC: normalised fold change): 0.80
Fzd4 log2 nFC BLM/EL244 vs BLM (DEG Fzd4, nFC: normalised fold change): 0.69
Galnt15 log2 nFC BLM/EL244 vs BLM (DEG Galnt15, nFC: normalised fold change): 0.89
log2 nFC BLM/EL244 vs BLM (DEG Gas2l3): -1.32
Ggt1 log2 nFC BLM/EL244 vs BLM (DEG Ggt1, nFC: normalised fold change): 1.91
log2 nFC BLM/EL244 vs BLM (DEG Gins2): -1.57
Gm867 log2 nFC BLM/EL244 vs BLM (DEG Gm867, nFC: normalised fold change): 2.18
Gm4956 log2 nFC BLM/EL244 vs BLM (DEG Gm4956, nFC: normalised fold change): 1.08
Gm9780 log2 nFC BLM/EL244 vs BLM (DEG Gm9780, nFC: normalised fold change): 2.06
Gm14964 log2 nFC BLM/EL244 vs BLM (DEG Gm14964, nFC: normalised fold change): 1.87
Gm20186 log2 nFC BLM/EL244 vs BLM (DEG Gm20186, nFC: normalised fold change): 1.31
Gm26236 log2 nFC BLM/EL244 vs BLM (DEG Gm26236, nFC: normalised fold change): 1.03
Gm42722 log2 nFC BLM/EL244 vs BLM (DEG Gm42722, nFC: normalised fold change): 1.79
Gm47291 log2 nFC BLM/EL244 vs BLM (DEG Gm47291, nFC: normalised fold change): 0.98
Gm49353 log2 nFC BLM/EL244 vs BLM (DEG Gm49353, nFC: normalised fold change): 2.21
Gm49391 log2 nFC BLM/EL244 vs BLM (DEG Gm49391, nFC: normalised fold change): 0.96
Gnao1 log2 nFC BLM/EL244 vs BLM (DEG Gnao1, nFC: normalised fold change): 0.85
Gnmt log2 nFC BLM/EL244 vs BLM (DEG Gnmt, nFC: normalised fold change): 1.14
Gpm6a log2 nFC BLM/EL244 vs BLM (DEG Gpm6a, nFC: normalised fold change): 0.83
Gpr155 log2 nFC BLM/EL244 vs BLM (DEG Gpr155, nFC: normalised fold change): 0.76
Gprasp1 log2 nFC BLM/EL244 vs BLM (DEG Gprasp1, nFC: normalised fold change): 0.72
Gpt log2 nFC BLM/EL244 vs BLM (DEG Gpt, nFC: normalised fold change): 0.73
Gria1 log2 nFC BLM/EL244 vs BLM (DEG Gria1, nFC: normalised fold change): 1.61
Gsn log2 nFC BLM/EL244 vs BLM (DEG Gsn, nFC: normalised fold change): 1.06
Gsta3 log2 nFC BLM/EL244 vs BLM (DEG Gsta3, nFC: normalised fold change): 1.10
Gstm1 log2 nFC BLM/EL244 vs BLM (DEG Gstm1, nFC: normalised fold change): 0.75
log2 nFC BLM/EL244 vs BLM (DEG Gtse1): -1.49
log2 nFC BLM/EL244 vs BLM (DEG Gxylt2): -1.47
Gzma log2 nFC BLM/EL244 vs BLM (DEG Gzma, nFC: normalised fold change): 1.70
log2 nFC BLM/EL244 vs BLM (DEG H2ac11): -1.45
log2 nFC BLM/EL244 vs BLM (DEG H2ac12): -1.44
Hba-a1 log2 nFC BLM/EL244 vs BLM (DEG Hba-a1, nFC: normalised fold change): 1.21
Hba-a2 log2 nFC BLM/EL244 vs BLM (DEG Hba-a2, nFC: normalised fold change): 1.14
Hbb-bs log2 nFC BLM/EL244 vs BLM (DEG Hbb-bs, nFC: normalised fold change): 1.10
Hbb-bt log2 nFC BLM/EL244 vs BLM (DEG Hbb-bt, nFC: normalised fold change): 1.09
log2 nFC BLM/EL244 vs BLM (DEG Hells): -1.30
Hhatl log2 nFC BLM/EL244 vs BLM (DEG Hhatl, nFC: normalised fold change): 2.05
Hlf log2 nFC BLM/EL244 vs BLM (DEG Hlf, nFC: normalised fold change): 0.89
Igf1r log2 nFC BLM/EL244 vs BLM (DEG Igf1r, nFC: normalised fold change): 0.70
